Assay [1] concerns the target Sphingosine 1-phosphate receptor 1 (Homo sapiens, UniProt P21453). It counts as functional.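 Further: Tango beta-arrestin reporter U2OS cells stimulated with S1P near its EC80; inhibitor potency meaning antagonism of receptor activation by the natural agonist.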
In assay [2] the target is G-protein coupled receptor 55 (Homo sapiens, UniProt Q9Y2T6). The assay is described as follows: GPR55 agonists via beta-arrestin recruitment, primary screen, imaging, U2OS cells, beta-arrestin-GFP redistribution (AID 1961). It counts as functional. In general terms: Arrestin recruitment assays detect the binding of arrestin to an activated receptor.
Chain of G-protein coupled receptor 55 (Q9Y2T6 whole entry): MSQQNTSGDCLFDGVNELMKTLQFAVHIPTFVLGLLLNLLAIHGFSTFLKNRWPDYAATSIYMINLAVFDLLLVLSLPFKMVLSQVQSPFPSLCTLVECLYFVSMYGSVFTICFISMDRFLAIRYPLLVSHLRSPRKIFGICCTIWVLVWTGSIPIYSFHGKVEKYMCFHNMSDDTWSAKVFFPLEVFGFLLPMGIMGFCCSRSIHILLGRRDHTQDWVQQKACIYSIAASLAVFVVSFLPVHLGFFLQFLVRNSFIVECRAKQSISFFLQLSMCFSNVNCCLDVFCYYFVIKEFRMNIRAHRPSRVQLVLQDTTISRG
Assay [3] addresses Heat shock protein HSP 90-alpha (Homo sapiens, UniProt P07900). The assay is described as follows: Luminescence-based dose response biochemical high throughput screening assay for inhibitors of the Heat Shock Protein 90 (HSP90). [Related pubchem assays: 1831 (Summary AID.), 1846 (Confirmation screen.), 1789 (Primary screen.)].
The target in assay [4] is Caspase-9 (Homo sapiens, UniProt P55211). The assay is described as follows: caspase-9 enzyme inhibition, dose response, selectivity assay for caspase-6 inhibitor project, biochemical, fluorescence, plate reader, cherry-picked samples (AID 743293).
Chain of Caspase-9 (P55211 1-315 limits assumed): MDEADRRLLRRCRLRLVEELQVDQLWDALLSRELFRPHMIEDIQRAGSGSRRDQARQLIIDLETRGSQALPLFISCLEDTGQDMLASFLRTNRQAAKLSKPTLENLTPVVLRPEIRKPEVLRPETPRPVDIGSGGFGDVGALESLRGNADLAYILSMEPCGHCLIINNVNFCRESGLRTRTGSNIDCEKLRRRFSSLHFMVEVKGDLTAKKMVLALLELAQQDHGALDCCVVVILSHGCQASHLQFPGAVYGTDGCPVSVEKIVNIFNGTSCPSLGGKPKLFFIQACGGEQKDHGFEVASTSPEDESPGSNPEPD
Chain of Caspase-9 (P55211 331-416 limits assumed): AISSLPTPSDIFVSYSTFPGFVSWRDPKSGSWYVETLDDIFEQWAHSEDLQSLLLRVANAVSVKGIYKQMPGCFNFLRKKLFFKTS
Assay [5] has as its target Small ubiquitin-related modifier 2 (Homo sapiens, UniProt P61956). The assay is described as follows: inhibitors of SUMO2 protein-protein interaction, dose response, selectivity assay for SUMO1 interaction inhibitor project, biochemical, FRET, human SUMO2, uHTS hits (AID 624384). It counts as functional. The settings on record: read-out: IC50_Mean.
In assay [6] the target is T1, Rac GTPase-activating protein 1 (Homo sapiens, UniProt Q9H0H5).
T1 sequence (Q9H0H5 whole entry): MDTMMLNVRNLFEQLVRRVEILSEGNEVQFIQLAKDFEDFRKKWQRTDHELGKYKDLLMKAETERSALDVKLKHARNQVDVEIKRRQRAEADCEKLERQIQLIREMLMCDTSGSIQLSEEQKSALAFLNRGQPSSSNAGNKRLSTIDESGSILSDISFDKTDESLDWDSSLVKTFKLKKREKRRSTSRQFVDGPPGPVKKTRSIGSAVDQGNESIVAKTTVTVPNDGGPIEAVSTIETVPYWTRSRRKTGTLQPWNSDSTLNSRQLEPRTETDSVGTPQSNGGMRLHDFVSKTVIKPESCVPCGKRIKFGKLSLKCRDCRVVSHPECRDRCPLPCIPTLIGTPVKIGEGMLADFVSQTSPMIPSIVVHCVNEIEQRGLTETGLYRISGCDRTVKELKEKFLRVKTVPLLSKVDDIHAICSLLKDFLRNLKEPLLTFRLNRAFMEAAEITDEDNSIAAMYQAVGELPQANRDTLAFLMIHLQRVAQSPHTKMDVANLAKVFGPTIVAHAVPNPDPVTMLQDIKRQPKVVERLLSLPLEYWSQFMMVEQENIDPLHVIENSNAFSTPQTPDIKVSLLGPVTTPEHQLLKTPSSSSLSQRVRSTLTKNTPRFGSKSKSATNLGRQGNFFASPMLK
The assay is described as follows: MgcRacGAP GTPase-activating activity inhibitors, confirmation, biochemical, ADP Hunter fluorescence, primary and confirmatory (AID 624330). It is filed as functional.

Assay [7] addresses Dual specificity tyrosine-phosphorylation-regulated kinase 1A (Rattus norvegicus, UniProt Q63470). It counts as biochemical, Homo sapiens.
A short description of assay [8]: inhibitors of SNCA 5'UTR-driven reporter translation, confirmation, H4 neuroglioma cells, luminescence (AID 1988). It is filed as functional, cell-based.
The target in assay [9] is Peroxisome proliferator-activated receptor gamma/Nuclear receptor coactivator 3 (Homo sapiens, UniProt P37231). The assay is described as follows: TR-FRET dose response biochemical High Throughput Screening assay for agonists of the steroid receptor coactivator 3 (SRC-3) recruitment by the peroxisome proliferator-activated receptor gamma (PPAR gamma): non-selective agonists. [Related pubchem assays: 1301 (Confirmation screen.), 1048 (Primary screen.)]. It counts as functional. On the technique in general: TR-FRET usually uses a lanthanide donor and a delayed reading to cut background.
Chain of Peroxisome proliferator-activated receptor gamma/Nuclear receptor coactivator 3 (P37231 whole entry): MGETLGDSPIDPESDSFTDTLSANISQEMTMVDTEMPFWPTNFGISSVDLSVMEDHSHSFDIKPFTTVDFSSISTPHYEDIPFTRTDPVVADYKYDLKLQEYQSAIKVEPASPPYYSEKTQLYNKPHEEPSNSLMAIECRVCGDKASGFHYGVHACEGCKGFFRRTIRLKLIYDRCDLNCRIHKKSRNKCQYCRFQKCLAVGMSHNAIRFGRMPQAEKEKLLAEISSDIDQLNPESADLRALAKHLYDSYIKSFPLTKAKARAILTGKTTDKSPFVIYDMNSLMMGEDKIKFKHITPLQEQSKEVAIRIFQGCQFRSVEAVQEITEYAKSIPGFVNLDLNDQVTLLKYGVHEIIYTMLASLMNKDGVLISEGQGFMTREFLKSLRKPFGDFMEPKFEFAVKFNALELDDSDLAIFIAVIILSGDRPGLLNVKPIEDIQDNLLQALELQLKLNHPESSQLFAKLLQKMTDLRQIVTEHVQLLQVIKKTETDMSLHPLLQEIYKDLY
Chain of Peroxisome proliferator-activated receptor gamma/Nuclear receptor coactivator 3 (Q9Y6Q9 whole entry, further chain): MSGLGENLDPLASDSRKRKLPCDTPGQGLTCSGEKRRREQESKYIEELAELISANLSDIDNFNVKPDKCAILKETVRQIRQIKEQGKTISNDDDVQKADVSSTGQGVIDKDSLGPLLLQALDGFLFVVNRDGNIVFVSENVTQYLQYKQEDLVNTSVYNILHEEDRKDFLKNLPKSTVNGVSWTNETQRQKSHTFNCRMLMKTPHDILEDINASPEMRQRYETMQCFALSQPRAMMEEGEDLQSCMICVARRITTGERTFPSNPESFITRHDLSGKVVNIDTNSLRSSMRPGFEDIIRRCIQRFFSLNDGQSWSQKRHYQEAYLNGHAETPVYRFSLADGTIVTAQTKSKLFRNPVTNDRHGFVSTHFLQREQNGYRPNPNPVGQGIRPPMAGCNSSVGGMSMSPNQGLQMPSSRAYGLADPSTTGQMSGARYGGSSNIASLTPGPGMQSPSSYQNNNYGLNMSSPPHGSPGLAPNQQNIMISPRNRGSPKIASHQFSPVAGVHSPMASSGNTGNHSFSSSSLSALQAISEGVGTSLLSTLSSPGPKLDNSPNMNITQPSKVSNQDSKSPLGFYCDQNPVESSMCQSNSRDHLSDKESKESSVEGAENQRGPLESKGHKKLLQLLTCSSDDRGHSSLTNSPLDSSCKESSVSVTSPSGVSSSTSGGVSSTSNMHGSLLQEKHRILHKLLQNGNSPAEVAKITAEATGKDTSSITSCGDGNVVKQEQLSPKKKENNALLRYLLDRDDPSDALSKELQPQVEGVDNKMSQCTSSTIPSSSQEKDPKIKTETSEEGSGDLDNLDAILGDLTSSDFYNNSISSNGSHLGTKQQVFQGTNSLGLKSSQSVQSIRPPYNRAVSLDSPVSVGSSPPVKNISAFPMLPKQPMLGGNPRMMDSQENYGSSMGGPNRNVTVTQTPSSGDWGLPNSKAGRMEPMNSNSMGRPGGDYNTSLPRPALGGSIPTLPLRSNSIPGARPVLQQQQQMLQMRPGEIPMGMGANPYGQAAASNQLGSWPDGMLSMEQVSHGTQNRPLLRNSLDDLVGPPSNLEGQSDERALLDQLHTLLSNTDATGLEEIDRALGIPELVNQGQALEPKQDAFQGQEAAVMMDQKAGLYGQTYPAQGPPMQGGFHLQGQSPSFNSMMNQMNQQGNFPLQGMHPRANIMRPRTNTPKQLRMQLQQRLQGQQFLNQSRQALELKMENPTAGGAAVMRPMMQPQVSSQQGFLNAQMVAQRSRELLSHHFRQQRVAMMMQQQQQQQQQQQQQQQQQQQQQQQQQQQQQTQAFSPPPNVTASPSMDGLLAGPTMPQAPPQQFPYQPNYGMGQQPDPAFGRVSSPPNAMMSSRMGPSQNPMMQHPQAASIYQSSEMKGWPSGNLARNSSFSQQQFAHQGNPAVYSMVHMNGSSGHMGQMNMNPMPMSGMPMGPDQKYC

The nature of assay [10]: Vero E6 cell cytotoxicity, dose response, cytotoxicity control for non-replicating M. tuberculosis project, secondary assay (AID 492998). It counts as functional, VeroE6. The settings on record: Vero C1008.
Assay [11] addresses Mothers against decapentaplegic homolog 3 (Homo sapiens, UniProt P84022). The assay is described as follows: SMAD3 transcription factor inhibitors, dose response (AID 715). It is filed as functional.
The nature of assay [12]: inhibitors of firefly luciferase expression or activity, dose response, H4 neuroglioma cells, luminescence (AID 1990). It counts as functional, cell-based.
The target in assay [13] is T2, Mannose-6-phosphate isomerase (Homo sapiens, UniProt P34949).
T2 sequence (P34949 whole entry): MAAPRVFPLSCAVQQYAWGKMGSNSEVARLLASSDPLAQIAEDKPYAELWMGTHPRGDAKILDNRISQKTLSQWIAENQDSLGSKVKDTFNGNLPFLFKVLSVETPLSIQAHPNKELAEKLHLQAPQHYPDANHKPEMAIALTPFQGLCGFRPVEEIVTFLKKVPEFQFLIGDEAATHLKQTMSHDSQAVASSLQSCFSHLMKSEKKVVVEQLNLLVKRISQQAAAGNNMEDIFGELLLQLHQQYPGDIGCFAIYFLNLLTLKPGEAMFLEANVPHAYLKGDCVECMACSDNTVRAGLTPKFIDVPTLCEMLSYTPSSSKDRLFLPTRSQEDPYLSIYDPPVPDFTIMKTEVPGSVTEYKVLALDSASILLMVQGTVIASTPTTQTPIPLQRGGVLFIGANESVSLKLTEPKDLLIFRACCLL
The assay is described as follows: inhibitors of human PMI, primary screen, biochemical, fluorescence intensity, coupled assay (AID 1209).

In assay [14] the target is T3, Serine/threonine-protein phosphatase (Candida dubliniensis (strain CD36 / CBS 7987 / NCPF 3949 / NRRLY-17841) (Yeast), UniProt B9W6M3).
T3 sequence (B9W6M3 whole entry): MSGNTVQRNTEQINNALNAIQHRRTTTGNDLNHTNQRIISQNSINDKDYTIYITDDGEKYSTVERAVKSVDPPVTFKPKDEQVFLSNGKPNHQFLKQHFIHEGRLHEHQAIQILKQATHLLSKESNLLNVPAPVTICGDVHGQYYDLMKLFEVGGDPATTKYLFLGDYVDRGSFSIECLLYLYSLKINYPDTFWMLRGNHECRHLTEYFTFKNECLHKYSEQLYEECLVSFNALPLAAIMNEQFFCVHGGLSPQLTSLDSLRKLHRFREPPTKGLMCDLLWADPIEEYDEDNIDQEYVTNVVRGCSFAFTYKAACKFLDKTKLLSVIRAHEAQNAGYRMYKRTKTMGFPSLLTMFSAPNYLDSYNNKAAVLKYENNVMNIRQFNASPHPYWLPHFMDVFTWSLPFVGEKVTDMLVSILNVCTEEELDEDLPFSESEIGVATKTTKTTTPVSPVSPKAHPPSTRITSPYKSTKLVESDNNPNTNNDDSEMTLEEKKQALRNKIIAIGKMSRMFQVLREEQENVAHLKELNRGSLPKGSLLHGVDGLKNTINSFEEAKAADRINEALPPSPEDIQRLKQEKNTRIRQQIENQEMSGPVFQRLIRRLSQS
The assay is described as follows: calcineurin pathway inhibitors in yeast reporter, dose response, S. cerevisiae, CDRE-lacZ, luminescence, secondary (AID 2388).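 Further: yeast reporter cells carrying a calcineurin-responsive lacZ construct stimulated with calcium chloride; luminescent beta-galactosidase reporter signal in whole cells rather than isolated phosphatase activity; potency for inhibition where a drop in reporter signal means calcineurin blockade.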 It is filed as functional, cell-based.

Assay [15] can be described thus: cytotoxicity in MIN6 insulinoma cells, dose response, cytotoxicity control, cell-based, mouse insulinoma (AID 2122).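 Further: confirmatory high-throughput counterscreen run to flag cytotoxic compounds; mouse MIN-6 beta cells carrying an insulin promoter eGFP reporter.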 It counts as functional.
Assay [16] in a line: C. albicans growth with fluconazole, confirmation, fluorescence, retest (AID 2467). It counts as functional, cell-based.

The structures appear in SMILES notation. The source made the active and inactive calls.

The EC50 is the concentration giving half of the maximal effect. In general, AC50 refers to the concentration giving half of the maximal activity seen. The term CC50 denotes the concentration at which the toxic effect on the cells reaches its halfway point.

Chain of Mothers against decapentaplegic homolog 3 (P84022 whole entry): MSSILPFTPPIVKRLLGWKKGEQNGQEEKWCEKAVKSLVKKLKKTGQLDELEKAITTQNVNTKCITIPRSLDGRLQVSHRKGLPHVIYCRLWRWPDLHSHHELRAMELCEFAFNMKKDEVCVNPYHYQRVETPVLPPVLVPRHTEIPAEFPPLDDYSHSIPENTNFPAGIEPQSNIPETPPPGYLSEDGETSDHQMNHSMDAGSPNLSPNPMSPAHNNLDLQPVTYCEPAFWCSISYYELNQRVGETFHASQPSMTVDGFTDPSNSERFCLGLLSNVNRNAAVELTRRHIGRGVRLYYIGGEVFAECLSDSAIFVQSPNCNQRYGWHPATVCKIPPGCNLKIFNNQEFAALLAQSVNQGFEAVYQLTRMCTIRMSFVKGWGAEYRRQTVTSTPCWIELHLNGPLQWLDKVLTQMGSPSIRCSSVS
Chain of Sphingosine 1-phosphate receptor 1 (P21453 whole entry): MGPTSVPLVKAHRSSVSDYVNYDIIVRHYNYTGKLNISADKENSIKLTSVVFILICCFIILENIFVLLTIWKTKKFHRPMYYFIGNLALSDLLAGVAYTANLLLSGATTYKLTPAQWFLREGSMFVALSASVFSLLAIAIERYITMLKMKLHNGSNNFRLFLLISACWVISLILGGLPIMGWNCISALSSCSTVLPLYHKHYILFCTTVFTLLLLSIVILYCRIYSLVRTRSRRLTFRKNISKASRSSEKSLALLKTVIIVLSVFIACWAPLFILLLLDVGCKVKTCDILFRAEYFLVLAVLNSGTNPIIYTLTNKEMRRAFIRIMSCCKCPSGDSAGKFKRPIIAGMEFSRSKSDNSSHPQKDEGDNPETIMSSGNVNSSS
Chain of Small ubiquitin-related modifier 2 (P61956 whole entry): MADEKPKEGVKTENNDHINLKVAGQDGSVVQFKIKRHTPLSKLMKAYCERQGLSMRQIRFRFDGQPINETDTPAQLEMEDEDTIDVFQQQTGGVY

Turning to `COC(CNC(=O)c1ccc2c3c(onc13)-c1ccccc1C2=O)OC`, in assay [1], the IC50 is on record as 15.1 µM (not active).
For the molecule `COC(=O)[C@@H]1[C@@H](C(=O)OC)C2(c3ccccc3-c3ccccc32)N(c2ccc(Cl)cc2)N1C#N`, the EC50 in assay [2] is > 32 µM (inactive).
As for `O=C(O)c1ccc(NC2=C/C(=N/S(=O)(=O)c3ccccc3)c3ccccc3C2=O)cc1`, the IC50 in assay [3] is 967 nM (active).
Turning to `COc1ccc(OC)c(Nc2cc3ccccc3c(O)n2)c1`, in assay [4], the AC50 is 10.1 µM (active).
For the molecule `COc1cc(-c2ccc(Nc3ccccc3C(=O)O)c(OC)c2)ccc1Nc1ccccc1C(=O)O`, the results for the IC50 in assay [5] and in [6] were 3.91 µM (active) and 41.4 µM (active), respectively.
Regarding `Nc1ccc2c(c1)C(=O)C(=O)c1ccccc1-2`, the AC50 in assay [7] was 547 nM (active). Also, the figures for the concentration giving a half-maximal response (EC50) in assay [8], in assay [9] and in assay [12] were > 120 µM (not active), > 79.4 µM (not active) and > 120 µM (not active), respectively. In addition, in assay [10], the CC50 was 1.81 µM (active). The results for the IC50 in assay [11] and in assay [13] were 9.89 µM (active) and > 50 µM (not active), respectively.
For the molecule `CCCC(=O)NC(c1ccccc1OC)c1ccc2cccnc2c1O` (stereo unspecified), the values for the EC50 in assay [14] and in assay [16] were > 180 µM (inactive) and 476 nM (active), respectively. Also, in [15], the IC50 is 1.91 µM (active).

Values taken from ChEMBL document CHEMBL1201862, “PubChem BioAssay data set” (2004).
